Experiment: gradient 5% acetonitrile 3 min, to 50% in 2 min, to 85% in 15 min, held 3 min, 100 µL/min
Conditions: column: Zorbax Extend-C18 2.1 x 50 mm; eluents: water / acetonitrile, 0.1% formic acid
Procedure, shortened: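 The mobile phases were water and acetonitrile, each with 0.1% formic acid, pumped at 100 μL/min through a Zorbax Extend-C18 column (2.1 × 50 mm, 1.8 μm). Pure standards were injected as mixtures of ~100 molecules and detected by a quadrupole time-of-flight mass spectrometer in positive and negative ionization mode. Retention time came from computationally picked adduct peaks, each inspected by hand.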

RP-LC retention time	Structure (SMILES)
1040 s	Cc1ccc(C2Cn3nnc(-c4nc(-c5cccnc5)no4)c3CO2)c(C)c1 (stereo not given)
872 s	Cc1ccc(NC(=O)N2CCC(N3CCN(Cc4ccccc4)C3=O)CC2)cc1F
600 s	CC(C)(C)C(=O)NCc1cccnc1-c1ccccc1
672 s	O=C(NCc1cccc(F)c1)c1cn2ccncc2n1
886 s	Cc1cccc(CNS(=O)(=O)c2ccc3c(c2)C(=O)N(C)c2ncccc2O3)c1
616 s	O=C(NCc1ccc(N2CCCCC2)nc1)C1CCCCC1
672 s	CN1CCN(C(=O)C2CCN(S(=O)(=O)c3cc(-c4noc(C5CCC5)n4)cs3)CC2)CC1
690 s	CS(=O)(=O)N1CCCC(C(=O)NCCC2=CCCCC2)CCNC(=O)CC1 (stereo not given)
822 s	O=C(Nc1ccc(F)c(F)c1)C1CCN(c2ccc(=O)n(-c3ccc(F)cc3)n2)CC1
580 s	Cc1nn(C)cc1CN1CCC[C@H]1c1nc(-c2ccccc2)n[nH]1
645 s	CCOCC(=O)Nc1ccc(-c2ccc(S(C)(=O)=O)nn2)cc1
804 s	COc1ccc(C)cc1NS(=O)(=O)c1cc(-c2c(C)noc2NC(C)=O)ccc1C
842 s	Cc1cccc(NC(=O)Cn2nc(C(=O)N3CCCC3)c3ccccc32)c1
892 s	Cc1cc(=O)n(CC(=O)Nc2cccc(C)c2C)c(NCCCc2ccccc2)n1
1080 s	O=C(NCc1cccc(Cl)c1)C1CCCN(c2nccnc2Sc2ccccc2)C1 (stereo not given)
1080 s	O=C(Nc1ccc2c(c1)CCCN2S(=O)(=O)c1ccccc1)c1c(F)cccc1Cl
716 s	O=C(Cc1ccc(NC(=O)Nc2ccc3c(c2)OCO3)cc1)NCC(F)(F)F
664 s	COc1ccccc1CC(=O)Nc1cnc(C)nc1
879 s	Fc1cc(F)c2nc(NCc3ccco3)sc2c1
587 s	Cc1ccc(-c2cc3c4nnc(CCC(=O)NC5CCCCCC5)n4ccn3n2)cc1C
653 s	Cc1nc2cc(N3CCCC(C(=O)N4CCCCCC4)C3)cnc2nc1C (stereo not given)
688 s	Cc1noc(-c2csc(C(=O)N3CCCC3)n2)n1
713 s	O=C(NC(Cc1ccccc1)c1nnc(N2CCCC2)o1)c1ccco1 (stereo not given)

RP-LC retention time	Structure (SMILES)
982 s	CCN1C(=O)C(C)(C(=O)Nc2cccc(Cl)c2)Oc2cccnc21 (stereo not given)
1090 s	Cc1nn(CC(=O)NCCC2=CCCCC2)c(=O)c2c(-n3cccc3)n(-c3cccc(F)c3)nc12
861 s	Cc1ccc(NC(=O)N2CCC[C@@H]2C(=O)NCc2csc(-c3ccccc3)n2)cc1C
621 s	COc1cc(C(=O)NC2CCCNC2)cc(OC)c1OC (stereo not given)
933 s	COc1cccc(S(=O)(=O)N2CCc3c(c(-c4nnc(-c5ccccc5)o4)nn3C)C2)c1
844 s	O=C(NC1CCCCC1)C1CCN(C(=O)c2ncn3c2COC(c2ccc(Cl)cc2)C3)CC1 (stereo not given)
858 s	CCN(c1ccccc1)S(=O)(=O)c1ccc(C(=O)Nc2cc(C)nn2C(C)C)cc1
577 s	O=C(O)CSc1nnc(COc2cccc3cccnc23)n1-c1ccccc1
572 s	COc1cccc(CN2CCC3(CCC3O)CC2)c1OC (stereo not given)
918 s	COC(=O)c1cccc(Nc2c(-c3cccc(Br)c3)nc3cnccn23)c1
769 s	CCOC(=O)c1nc(N(CC)c2ccccc2)c2ccccc2n1
1260 s	CCc1ccc(NC(=O)c2sc(-c3cccn3CC)nc2C)cc1
767 s	Cn1c(=O)n(CC(=O)N2CCOCC2)c(=O)c2cnc(-c3ccccc3)nc21
968 s	CCSCCOC(=O)C1=C(C)NC2=C(C(=O)C(C(=O)OC)C(C)C2)C1c1cccc(OC)c1 (stereo not given)
795 s	Cc1ccc(-c2ccc3nnc(CCC(=O)NCCCOC(C)C)n3n2)cc1C
624 s	CC1CCC(NC(=O)C2CCN(C(=O)c3cc(-c4ccncc4)n[nH]3)CC2)CC1 (stereo not given)
669 s	O=C(Nc1cccc(Cl)c1)c1nnc(CCCC(=O)N2CCN(c3ccccn3)CC2)s1
861 s	Cc1nnc(-c2ccc3ccn(CC(=O)Nc4ccc(F)c(Cl)c4)c3c2)o1
752 s	Cc1oc(C2CCN(C(=O)Nc3ccc(F)cc3)CC2)nc1C(=O)N1CCCC1
846 s	CCc1onc(C)c1C1CCCN1C(=O)CCc1ccccc1 (stereo not given)
1100 s	O=c1c2cc3c(cc2nc(SCc2nc(-c4ccccc4)no2)n1CC1CCCO1)OCO3 (stereo not given)
821 s	CCN1c2cc(C(=O)Nc3ccc4c(c3)OCCO4)ccc2C(=O)N2CCCCC21 (stereo not given)
580 s	Cc1cccc(CNC(=O)c2nc3cccnc3n(CC(C)C)c2=O)c1

RP-LC retention time	Structure (SMILES)
709 s	CCN(C(=O)Cn1nc2n(c1=O)CCCCC2)c1ccccc1
703 s	Cc1ccc(Cc2nc(-c3ccc4c(c3)nnn4CCN3CCOCC3)no2)cc1
1060 s	Cc1ccc(N2CC(c3noc(-c4cc(F)cc(F)c4)n3)CC2=O)cc1 (stereo not given)
590 s	O=C(Cc1ccc(Cl)cc1)N1CCc2nc[nH]c2C1
988 s	CCC(C(=O)NCc1cccc(OC)c1OC)n1sc2ccccc2c1=O (stereo not given)
698 s	O=C(c1cc2c(s1)-c1ccsc1CC2)N1CCN(c2ccccn2)CC1
798 s	CCOC(=O)c1[nH]c(C)c(CCC(=O)N2CCC(C(=O)NCCC(C)C)CC2)c1C
695 s	O=C(CC1CCCCC1)NC(Cc1ccccc1)C(=O)N1CCN(c2ccccn2)CC1 (stereo not given)
842 s	Cc1ccc2[nH]cc(CCN3CC(C(=O)Nc4cccc(F)c4)CC3=O)c2c1 (stereo not given)
1100 s	O=C(Nc1ccccc1Br)c1n[nH]nc1Nc1ccccc1
754 s	CN1c2cc(F)ccc2C(=O)NC12CCN(C(=O)NCc1ccc(F)cc1)CC2
645 s	COc1ccc(S(=O)(=O)Nc2cccc(-c3cn4ccccc4n3)c2)cc1
1110 s	CC(C)Cn1cc(CCNS(=O)(=O)c2ccc(C(C)C)cc2)c2cccnc21
997 s	CCOc1ccc(C(=O)n2nc(C)c(S(=O)(=O)N3CCCCC3)c2C)cc1
761 s	CCOC(=O)Cn1c(C2CC(=O)N(c3ccccc3Cl)C2)nc2ccccc21 (stereo not given)
749 s	CC(C)N1CCN(Cc2ccc(C(=O)NC3CCCCCC3)cc2)C(=O)C1=O
1060 s	COC(=O)c1ccc(-c2nc3cnccn3c2Nc2ccc(C)cc2Br)cc1
760 s	CN1CCC(OC(c2ccccc2)c2ccccc2)CC1
926 s	Cc1ccc(NC(=O)C2CCCN(S(=O)(=O)c3c[nH]c(C(=O)N4CCCCCC4)c3)C2)cc1 (stereo not given)
1010 s	Cc1ccc(S(=O)(=O)N(C)C)cc1-c1nnc(-c2ccccc2Cl)o1
605 s	Cc1nnc2ccc(-c3cccc(NC(=O)C4CCN(S(C)(=O)=O)CC4)c3)nn12
958 s	O=C(NCc1ccc(F)cc1)C1CCN(S(=O)(=O)c2cc(-c3noc(C4CC4)n3)cs2)CC1
687 s	Cc1ccc(Oc2ccc(NS(=O)(=O)c3cccs3)cc2)nn1

RP-LC retention time	Structure (SMILES)
675 s	O=C(Cn1c(-c2ccc(F)cc2)nc2ccccc21)N1CCCCC1
679 s	CCCn1cc(-c2ccncc2)cc1C(=O)Nc1ccc2c(c1)OCCO2
678 s	O=C(NCCn1nc(-c2cccs2)ccc1=O)c1ccc(=O)n(Cc2ccccc2)n1
946 s	COc1cc2c(cc1OC)C(C(=O)NCc1ccc(C)o1)C1c3ccccc3CCN1C2=O (stereo not given)
1240 s	O=C(Nc1ccc(-c2nc(-c3ccc(Cl)cc3)no2)cc1)c1cccs1
578 s	CCn1cnc2cc(CNC(=O)Cc3ccsc3)ccc21
670 s	COCCC1CCN(C(=O)CN(C)C(=O)c2cccn2C)CC1
687 s	CCOc1cccc(CNc2nc3ccncc3n(C(C)C)c2=O)c1
643 s	CC(=O)Nc1c(C)noc1/C=C\c1ccc(S(=O)(=O)N2CCN(c3ccccn3)CC2)cc1
932 s	CC(C)CN1C(=O)CCc2cc(NS(=O)(=O)c3cccc(Cl)c3)ccc21
682 s	CCN1CCN(Cc2ccc(C(=O)NCc3cc(F)cc(F)c3)cc2)C(=O)C1=O
816 s	CCOc1ccc(NC(=O)C2CCCN(c3ncnc4c3oc3ccccc34)C2)cc1 (stereo not given)
1090 s	CCN(CC)S(=O)(=O)c1ccc(F)c(-c2nnc(-c3ccccc3Br)o2)c1
666 s	O=C(NCc1ccc(F)cc1)C1CCN(c2cc(N3CCSCC3)ncn2)CC1
855 s	Cc1ccc(C)c(C(=O)N2CCC3(CC2)N=C(c2ccccc2)NO3)c1
1260 s	CC(Oc1ccccc1F)C(=O)Nc1ccc(-c2nc(-c3ccccc3)no2)cc1 (stereo not given)
891 s	Cc1sc(-c2cc(C(F)(F)F)on2)cc1S(=O)(=O)N1CCN(c2ccccn2)CC1
718 s	COCCn1cc(CCNC(=O)Nc2ccc(C)cc2)c2cccnc21
740 s	O=C(NCCn1c(C(F)(F)F)nc2cccnc21)c1ccc(Br)o1
681 s	O=C(CSc1ccc(-n2cccn2)nn1)NCc1cccs1

Structure (SMILES)	RP-LC retention time
Cc1ncc2c(n1)C[C@@H]1CC[C@H]2N1C(=O)COc1ccccc1	669 s
